{
  "source": "patent US12286632B2",
  "about": "“Rationally-designed synthetic peptide shuttle agents for delivering polypeptide cargos from an extracellular space to the cytosol and/or nucleus of a target eukaryotic cell, uses thereof, methods and kits relating to same” (Feldan Bio Inc., priority 2016, dated 2025)",
  "key": {"[1]": {"tested_on": "HeLa cells", "test": "HOXB4-WT transduction, immuno-labelling and visualization by microscopy", "assay_type": "cell-based, Human", "details": "HOXB4-WT 25 μM; shuttle 35 μM; 10 seconds, Protocol B", "protocol": "Adherent cells were plated on a sterile glass strip at 1.5×10^5 cells per well in a 24-plate well and incubated overnight at 37° C. For fixation, cells were incubated in 500 μL per well of formaldehyde (3.7% v/v) for 15 minutes at room temperature, and washed 3 times for 5 minutes with PBS. For permeabilization, cells were incubated in 500 μL per well of Triton™ X-100 (0.2%) for 10 minutes at room temperature, and washed 3 times for 5 minutes with PBS. For blocking, cells were incubated in 500 μL per well of PBS containing 1% BSA (PBS/BSA) for 60 minutes at room temperature. Primary mouse monoclonal antibody was diluted PBS/BSA (1%). Cells were incubated in 30 μL of primary antibody overnight at 4° C. Cells were washed 3 times for 5 minutes with PBS. Secondary antibody was diluted in PBS/BSA (1%) and cells were incubated in 250 μL of secondary antibody 30 minutes at room temperature in the dark. Cells were washed 3 times for 5 minutes with PBS. […]\nRecombinant HOXB4-WT transcription factor (25 μM; Example 14.1) was co-incubated with 35 μM of His-CM18-PTD4 and exposed to HeLa cells for 10 seconds using Protocol B as described in Example 9.1. […] The cells were visualized by bright field and fluorescence microscopy at 20× and 40× magnifications as described in Example 3.2, and sample results are shown in FIG. 45. […]"}, "[2]": {"tested_on": "HeLa cells", "test": "Plasmid DNA (pEGFP-C1) transfection by peptides (% cells with GFP signal, cell viability)", "details": "DNA transfection in HeLa cells using peptides; pEGFP-C1 plasmid"}, "[3]": {"tested_on": "THP-1 cells", "test": "GFP-NLS protein transduction assay (flow cytometry: Pos cells %, viability %, relative fluorescence intensity; microscopy)"}, "[4]": {"tested_on": "HeLa cells", "test": "GFP-NLS and mCherry-NLS co-transduction, visualization by microscopy", "assay_type": "cell-based, Human", "details": "each cargo 5 μM; shuttle 35 μM; 10 seconds, Protocol B", "protocol": "The media in wells was removed, cells were washed once with PBS previously warmed at 37° C., and the shuttle agent/cargo mixture was then added to cover all cells for the desired length of time. The shuttle agent/cargo mixture in wells was removed, the cells were washed once with PBS, and fresh complete medium was added. Before analysis, the cells were washed once with PBS and fresh complete medium was added.\n• GFP-NLS recombinant protein (5 μM; see Example 5.1) and mCherry™-NLS recombinant protein (5 μM) were co-incubated together with 35 μM of His-CM18-PTD4, and then exposed to HeLa cells for 10 seconds using Protocol B as described in Example 9.1. After washing steps, the cells were immediately visualized by bright field and fluorescence microscopy at 20× magnifications as described in Example 3.2. Sample results are shown in FIG. 28, in which corresponding images showing bright field (FIG. 28A), DAPI fluorescence (FIG. 28B), GFP-NLS fluorescence (FIG. 28C), and mCherry™-NLS fluorescence (FIG. 28D) are shown. White triangle windows indicate examples of areas of co-labelling between GFP-NLS and mCherry™ fluorescence signals in cell nuclei. […] 9.7 GFP-NLS Transduction by his-CM18-PTD4 in THP-1 Suspension Cells: Flow Cytometry"}, "[5]": {"tested_on": "293T, Balb3T3, CHO, Myoblasts, Jurkat, CA46, HT2 and NIH3T3 cells", "test": "GFP-NLS transduction in several adherent and suspension cells, visualization by microscopy", "assay_type": "cell-based", "details": "35 μM, 10 seconds (adherent) or 5 μM, 15 seconds (suspension); GFP-NLS 5 μM", "protocol": "GFP-NLS recombinant protein (5 μM; see Example 5.1) was co-incubated with 35 μM of His-CM18-PTD4 and exposed to adherent cells for 10 seconds using […], or was co-incubated with 5 μM of His-CM18-PTD4 and exposed to suspension cells for 15 seconds using Protocol B, as described in Example 9.1. After washing the cells, GFP fluorescence was visualized by bright field and fluorescence microscopy. Sample images captured at 10× magnifications showing GFP fluorescence are shown for 293T (FIG. 37A), Balb3T3 (FIG. 37B), CHO (FIG. 37C), Myoblasts (FIG. 370), Jurkat (FIG. 37E), CA46 (FIG. 37F), HT2 (FIG. 37G), and NIH3T3 (FIG. 37H) cells. The insets show corresponding flow cytometry results performed as described in Example 3.3, indicating the percentage of GFP-NLS-positive cells.\nNuclear localization of the GFP-NLS was further confirmed in fixed and permeabilized myoblasts using cell immuno-labelling as described in Example 3.2a. GFP-NLS was labeled using a primary mouse monoclonal anti-GFP antibody (Feldan, #A017) and a secondary goat anti-mouse Alexa™-594 antibody (Abcam #150116). Nuclei were labelled with DAPI. Sample results for primary human myoblast cells are shown in FIG. 38, in which GFP immuno-labelling is shown in FIG. 38A, and an overlay of the GFP immuno-labelling and DAPI labelling is shown in FIG. 38B."}, "[6]": {"details": "THP-1, Protocol C, 5 μM shuttle, 5 μM GFP-NLS, 15 seconds"}},
  "data": [
    {"smiles": "CC[C@H](C)[C@H](NC(=O)[C@H](CCCCN)NC(=O)[C@H](CCCCN)NC(=O)[C@H](Cc1ccccc1)NC(=O)[C@H](CC(C)C)NC(=O)[C@H](CCCCN)NC(=O)[C@H](Cc1c[nH]c2ccccc12)NC(=O)[C@H](CCCCN)NC(=O)[C@H](Cc1c[nH]cn1)NC(=O)[C@H](Cc1c[nH]cn1)NC(=O)[C@H](Cc1c[nH]cn1)NC(=O)[C@H](Cc1c[nH]cn1)NC(=O)[C@H](Cc1c[nH]cn1)NC(=O)[C@@H](N)Cc1c[nH]cn1)C(=O)NCC(=O)N[C@@H](C)C(=O)N[C@H](C(=O)N[C@@H](CC(C)C)C(=O)N[C@@H](CCCCN)C(=O)N[C@H](C(=O)N[C@@H](CC(C)C)C(=O)N[C@H](C(=O)N[C@H](C(=O)NCC(=O)N[C@@H](Cc1ccc(O)cc1)C(=O)N[C@@H](C)C(=O)N[C@@H](CCCNC(=N)N)C(=O)N[C@@H](C)C(=O)N[C@@H](C)C(=O)N[C@@H](C)C(=O)N[C@@H](CCCNC(=N)N)C(=O)N[C@@H](CCC(N)=O)C(=O)N[C@@H](C)C(=O)N[C@@H](CCCNC(=N)N)C(=O)N[C@@H](C)C(=O)O)[C@@H](C)O)[C@@H](C)O)C(C)C)C(C)C", "note": "[His-CM18-PTD4]", "values": [
      {"measurement": "HOXB4-WT nuclear delivery (immuno-labelling)", "setting": "[1]", "value": "HOXB4-WT was successfully delivered to the nucleus after 30 min"},
      {"measurement": "Mean % cells with GFP signal (±St. Dev.; n = 3)", "setting": "[2]", "value": "0.04 ± 0.01", "unit": "%"},
      {"measurement": "GFP-NLS intracellular delivery after repeated daily treatments (in words)", "setting": "[3]; 0.5 or 0.8 μM shuttle, 150 min each day, in the presence of serum", "value": "result in intracellular delivery of GFP-NLS"},
      {"measurement": "Mean % cells with GFP signal (±St. Dev.; n = 3)", "setting": "[3]; Protocol C, THP-1, 1 μM shuttle, 5 μM GFP-NLS, incubation 15 sec", "value": "23.7 ± 0.2", "unit": "%"},
      {"measurement": "Mean % cells with GFP signal (±St. Dev.; n = 3)", "setting": "[3]; Protocol C, THP-1, 1 μM shuttle, 5 μM GFP-NLS, incubation 30 sec", "value": "53 ± 0.3", "unit": "%"},
      {"measurement": "Mean % cells with GFP signal (±St. Dev.; n = 3)", "setting": "[3]; Protocol C, THP-1, 1 μM shuttle, 5 μM GFP-NLS, incubation 60 sec", "value": "69.6 ± 4.2", "unit": "%"},
      {"measurement": "Mean % cells with GFP signal (±St. Dev.; n = 3)", "setting": "[3]; Protocol C, THP-1, 1 μM shuttle, 5 μM GFP-NLS, incubation 120 sec", "value": "89 ± 0.8", "unit": "%"},
      {"measurement": "Cell viability (%) (±St. Dev.; n = 3)", "setting": "[3]; [6]", "value": "64.1 ± 4.5", "unit": "%"},
      {"measurement": "Mean % cells with GFP signal (±St. Dev.; n = 3)", "setting": "[3]; [6]", "value": "64.1 ± 1.6", "unit": "%"},
      {"measurement": "Mean % cells with GFP signal (±St. Dev.; n = 3)", "setting": "[3]; THP-1, serum, daily 150 min, 0.5 μM shuttle, 5 μM GFP-NLS, 1 day exposure", "value": "12.1 ± 1.5", "unit": "%"},
      {"measurement": "Mean % cells with GFP signal (±St. Dev.; n = 3)", "setting": "[3]; THP-1, serum, daily 150 min, 0.5 μM shuttle, 5 μM GFP-NLS, 3 days exposure", "value": "73.4 ± 1.1", "unit": "%"},
      {"measurement": "Mean % cells with GFP signal (±St. Dev.; n = 3)", "setting": "[3]; THP-1, serum, daily 150 min, 0.8 μM shuttle, 1 μM GFP-NLS, 1 day exposure", "value": "1.6 ± 0.2", "unit": "%"},
      {"measurement": "Mean % cells with GFP signal (±St. Dev.; n = 3)", "setting": "[3]; THP-1, serum, daily 150 min, 0.8 μM shuttle, 1 μM GFP-NLS, 3 days exposure", "value": "6.5 ± 0.9", "unit": "%"},
      {"measurement": "Mean % cells with GFP signal (±St. Dev.; n = 3)", "setting": "[3]; THP-1, serum, daily 150 min, 0.8 μM shuttle, 2.5 μM GFP-NLS, 1 day exposure", "value": "12.2 ± 0.9", "unit": "%"},
      {"measurement": "Mean % cells with GFP signal (±St. Dev.; n = 3)", "setting": "[3]; THP-1, serum, daily 150 min, 0.8 μM shuttle, 2.5 μM GFP-NLS, 3 days exposure", "value": "62.4 ± 3.5", "unit": "%"},
      {"measurement": "Mean % cells with GFP signal (±St. Dev.; n = 3)", "setting": "[3]; Table 9.3, Protocol A, THP-1, shuttle 1 μM, GFP-NLS 5 μM, 1 hour", "value": "14.2 ± 2.2", "unit": "%"},
      {"measurement": "Mean % cells with GFP signal (±St. Dev.; n = 3)", "setting": "[3]; Table 9.3, Protocol C, THP-1, shuttle 0.5 μM, GFP-NLS 5 μM, 15 seconds", "value": "34.9 ± 3.8", "unit": "%"},
      {"measurement": "Mean % cells with GFP signal (±St. Dev.; n = 3)", "setting": "[3]; Table 9.3, Protocol C, THP-1, shuttle 5 μM, GFP-NLS 5 μM, 15 seconds", "value": "64.1 ± 1.6", "unit": "%"},
      {"measurement": "GFP-NLS intracellular delivery (microscopy / FACS, in words)", "setting": "[3]; shuttle 5 μM, GFP-NLS 5 μM, 15 seconds, Protocol C", "value": "successfully delivered intracellularly"},
      {"measurement": "co-delivery of GFP-NLS and mCherry-NLS (microscopy)", "setting": "[4]", "value": "successfully delivered together to the nucleus"},
      {"measurement": "GFP-NLS nuclear delivery (microscopy)", "setting": "[5]", "value": "successfully delivered to the nucleus of all the tested cells"}
    ]}
  ]
}
